Reference: the supplement of paper PMC10883282
± gives the standard deviation of the averaged measurements.

Columns and labels:
Assay in all cases: relative viability vs DMSO control (72 h) (fraction); higher = more viable cells
RD-ES = system: RD-ES
Summary of the method: (§1)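 Sarcoma cell lines were grown in 384-well plates seeded toward 80–90% confluence and exposed 24 h later to serially diluted compound. After 72 h at 37 °C and 5% CO2, with 0.1% DMSO vehicle and a 5 µM positive control on the plates, ATPLite was read. Relative viability, given as percent growth averaged over up to triplicate wells, was rescaled so that 1 is full and 0 is none.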

SYO-1 = system: SYO-1
Summary of the method: as §1

SK-ES-1 = system: SK-ES-1
Summary of the method: as §1

G401 = system: G401
Summary of the method: as §1

VA-ES-BJ = system: VA-ES-BJ
Summary of the method: as §1

KHOS-240S = system: KHOS-240S
Summary of the method: as §1

HT1080 = system: HT1080
Summary of the method: as §1

RD = system: RD
Summary of the method: as §1

SW982 = system: SW982
Summary of the method: as §1

SW1353 = system: SW1353
Summary of the method: as §1

SK-LMS-1 = system: SK-LMS-1
Summary of the method: as §1

MES-SA = system: MES-SA
Summary of the method: as §1

CCN(CCCOc1ccc2c(Nc3cc(CC(=O)Nc4cccc(F)c4)[nH]n3)ncnc2c1)CCOP(=O)(O)O [Barasertib]
Details	relative viability
G401, 0.00017 µM	0.961 ± 0.023
G401, 0.00051 µM	0.998 ± 0.02
G401, 0.00152 µM	0.996 ± 0.015
G401, 0.00457 µM	0.97 ± 0.021
G401, 0.01372 µM	0.897 ± 0.013
G401, 0.04115 µM	0.798 ± 0.031
G401, 0.1235 µM	0.777 ± 0.028
G401, 0.3704 µM	0.8003 ± 0.0051
G401, 1.111 µM	0.799 ± 0.014
G401, 3.333 µM	0.776 ± 0.034
G401, 10 µM	0.677 ± 0.016
HT1080, 0.00017 µM	1.05 ± 0.024
HT1080, 0.00051 µM	1.04 ± 0.025
HT1080, 0.00152 µM	1.04 ± 0.03
HT1080, 0.00457 µM	1.04 ± 0.0055
HT1080, 0.01372 µM	1.02 ± 0.012
HT1080, 0.04115 µM	0.977 ± 0.029
HT1080, 0.1235 µM	0.878 ± 0.025
HT1080, 0.3704 µM	0.89 ± 0.019
HT1080, 1.111 µM	0.9017 ± 0.0075
HT1080, 3.333 µM	0.895 ± 0.033
HT1080, 10 µM	0.87 ± 0.019
KHOS-240S, 0.00017 µM	1.04 ± 0.041
KHOS-240S, 0.00051 µM	1.02 ± 0.027
KHOS-240S, 0.00152 µM	1.03 ± 0.028
KHOS-240S, 0.00457 µM	1 ± 0.033
KHOS-240S, 0.01372 µM	0.978 ± 0.036
KHOS-240S, 0.04115 µM	0.9 ± 0.036
KHOS-240S, 0.1235 µM	0.794 ± 0.01
KHOS-240S, 0.3704 µM	0.759 ± 0.019
KHOS-240S, 1.111 µM	0.744 ± 0.022
KHOS-240S, 3.333 µM	0.736 ± 0.019
KHOS-240S, 10 µM	0.712 ± 0.044
MES-SA, 0.00017 µM	0.92 ± 0.011
MES-SA, 0.00051 µM	0.915 ± 0.0084
MES-SA, 0.00152 µM	0.911 ± 0.018
MES-SA, 0.00457 µM	0.892 ± 0.025
MES-SA, 0.01372 µM	0.692 ± 0.025
MES-SA, 0.04115 µM	0.448 ± 0.011
MES-SA, 0.1235 µM	0.448 ± 0.024
MES-SA, 0.3704 µM	0.447 ± 0.016
MES-SA, 1.111 µM	0.436 ± 0.0066
MES-SA, 3.333 µM	0.444 ± 0.013
MES-SA, 10 µM	0.398 ± 0.011
RD, 0.00017 µM	1.09 ± 0.047
RD, 0.00051 µM	1.09 ± 0.031
RD, 0.00152 µM	1.1 ± 0.023
RD, 0.00457 µM	1.06 ± 0.047
RD, 0.01372 µM	0.943 ± 0.04
RD, 0.04115 µM	0.888 ± 0.033
RD, 0.1235 µM	0.869 ± 0.03
RD, 0.3704 µM	0.84 ± 0.034
RD, 1.111 µM	0.803 ± 0.03
RD, 3.333 µM	0.759 ± 0.031
RD, 10 µM	0.681 ± 0.043
RD-ES, 0.00017 µM	0.994 ± 0.024
RD-ES, 0.00051 µM	0.974 ± 0.046
RD-ES, 0.00152 µM	0.984 ± 0.015
RD-ES, 0.00457 µM	0.951 ± 0.035
RD-ES, 0.01372 µM	0.746 ± 0.01
RD-ES, 0.04115 µM	0.156 ± 0.0099
RD-ES, 0.1235 µM	0.143 ± 0.02
RD-ES, 0.3704 µM	0.14 ± 0.011
RD-ES, 1.111 µM	0.131 ± 0.0095
RD-ES, 3.333 µM	0.117 ± 0.0084
RD-ES, 10 µM	0.127 ± 0.011
SK-ES-1, 0.00017 µM	1.05 ± 0.1
SK-ES-1, 0.00051 µM	1.09 ± 0.012
SK-ES-1, 0.00152 µM	1.04 ± 0.049
SK-ES-1, 0.00457 µM	0.98 ± 0.047
SK-ES-1, 0.01372 µM	0.237 ± 0.043
SK-ES-1, 0.04115 µM	0.065 ± 0.0049
SK-ES-1, 0.1235 µM	0.0636 ± 0.0021
SK-ES-1, 0.3704 µM	0.0641 ± 0.0024
SK-ES-1, 1.111 µM	0.061 ± 0.0046
SK-ES-1, 3.333 µM	0.0649 ± 0.0088
SK-ES-1, 10 µM	0.0658 ± 0.0041
SK-LMS-1, 0.00017 µM	1.02 ± 0.05
SK-LMS-1, 0.00051 µM	1.02 ± 0.061
SK-LMS-1, 0.00152 µM	1.03 ± 0.026
SK-LMS-1, 0.00457 µM	1 ± 0.019
SK-LMS-1, 0.01372 µM	1.06 ± 0.023
SK-LMS-1, 0.04115 µM	1.01 ± 0.035
SK-LMS-1, 0.1235 µM	0.917 ± 0.032
SK-LMS-1, 0.3704 µM	0.855 ± 0.023
SK-LMS-1, 1.111 µM	0.904 ± 0.015
SK-LMS-1, 3.333 µM	0.887 ± 0.036
SK-LMS-1, 10 µM	0.867 ± 0.012
SW982, 0.00017 µM	1.06 ± 0.036
SW982, 0.00051 µM	1.03 ± 0.015
SW982, 0.00152 µM	1.05 ± 0.057
SW982, 0.00457 µM	1.05 ± 0.028
SW982, 0.01372 µM	1 ± 0.063
SW982, 0.04115 µM	0.713 ± 0.032
SW982, 0.1235 µM	0.5551 ± 0.005
SW982, 0.3704 µM	0.552 ± 0.011
SW982, 1.111 µM	0.589 ± 0.016
SW982, 3.333 µM	0.525 ± 0.005
SW982, 10 µM	0.468 ± 0.025
SW1353, 0.00017 µM	0.955 ± 0.029
SW1353, 0.00051 µM	0.972 ± 0.025
SW1353, 0.00152 µM	0.939 ± 0.052
SW1353, 0.00457 µM	0.985 ± 0.025
SW1353, 0.01372 µM	0.867 ± 0.06
SW1353, 0.04115 µM	0.841 ± 0.036
SW1353, 0.1235 µM	0.842 ± 0.03
SW1353, 0.3704 µM	0.812 ± 0.019
SW1353, 1.111 µM	0.823 ± 0.0036
SW1353, 3.333 µM	0.82 ± 0.012
SW1353, 10 µM	0.8463 ± 0.0075
SYO-1, 0.00017 µM	0.939 ± 0.011
SYO-1, 0.00051 µM	0.918 ± 0.013
SYO-1, 0.00152 µM	0.891 ± 0.014
SYO-1, 0.00457 µM	0.82 ± 0.024
SYO-1, 0.01372 µM	0.479 ± 0.026
SYO-1, 0.04115 µM	0.415 ± 0.021
SYO-1, 0.1235 µM	0.397 ± 0.024
SYO-1, 0.3704 µM	0.337 ± 0.035
SYO-1, 1.111 µM	0.319 ± 0.011
SYO-1, 3.333 µM	0.284 ± 0.0079
SYO-1, 10 µM	0.251 ± 0.017
VA-ES-BJ, 0.00017 µM	1.01 ± 0.021
VA-ES-BJ, 0.00051 µM	1.01 ± 0.037
VA-ES-BJ, 0.00152 µM	0.986 ± 0.048
VA-ES-BJ, 0.00457 µM	0.998 ± 0.069
VA-ES-BJ, 0.01372 µM	0.84 ± 0.015
VA-ES-BJ, 0.04115 µM	0.634 ± 0.034
VA-ES-BJ, 0.1235 µM	0.619 ± 0.024
VA-ES-BJ, 0.3704 µM	0.647 ± 0.028
VA-ES-BJ, 1.111 µM	0.689 ± 0.015
VA-ES-BJ, 3.333 µM	0.68 ± 0.055
VA-ES-BJ, 10 µM	0.727 ± 0.012
